According to ChEMBL document CHEMBL1153781, “Prediction of volume of distribution values in human using immobilized artificial membrane partitioning coefficients, the fraction of compound ionized and plasma protein binding data” (Eur J Med Chem, 2009):

Tests used:
[1] = Dissociation constant, pKa of the compound; type: physicochemical
Plasma = details: human
Description: Fraction unbound in human plasma

clinical = details: human, in vivo

Row | SMILES | pKa [1] | fu (Plasma) | Vd (clinical)
1 | O=C(O)c1cc(=O)c2c(OCC(O)COc3cccc4oc(C(=O)O)cc(=O)c34)cccc2o1 [CROMOLYN] | 1.9 | 0 | 0.32 L/kg
2 | CCn1cc(C(=O)O)c(=O)c2cc(F)c(N3CCNCC3)nc21 [ENOXACIN] | 6.3 | 0.485 | 1.96 L/kg
3 | COC(=O)CCc1ccc(OCC(O)CNC(C)C)cc1 (stereo not drawn) [ESMOLOL] | […] | 0.45 | 1.9 L/kg
4 | Cc1ccc(S(=O)(=O)NC(=O)NN2CC3CCCC3C2)cc1 (stereo not drawn) [GLICLAZIDE] | 5.98 | 0.09 | 0.36 L/kg
5 | COc1ccc2c(c1)C(=O)N(CCc1ccc(S(=O)(=O)NC(=O)NC3CCCCC3)cc1)C(=O)C2(C)C [GLIQUIDONE] | 5 | 0.01 | 0.16 L/kg
6 | CCn1cc(C(=O)O)c(=O)c2cc(F)c(N3CCNC(C)C3)c(F)c21 (stereo not drawn) [LOMEFLOXACIN] | 5.99 | 0.89 | 2.3 L/kg
7 | Nc1cc(N2CCCCC2)nc(N)[n+]1[O-] [MINOXIDIL] | 4.6 | 1 | 3 L/kg
8 | CN1CCOC(c2ccccc2)c2ccccc2C1 (stereo not drawn) [NEFOPAM] | 9.3 | 0.27 | 7.23 L/kg
9 | CCn1cc(C(=O)O)c(=O)c2cc(F)c(N3CCNCC3)cc21 [NORFLOXACIN] | 6.3 | 0.85 | 2.8 L/kg
10 | CCCC(C)C1(CC)C(=O)NC(=O)NC1=O (stereo not drawn) [PENTOBARBITAL] | 8.1 | 0.45 | 1 L/kg
11 | CCCOC(C(=O)OC1CCN(C)CC1)(c1ccccc1)c1ccccc1 [PROPIVERINE] | 6.65 | 0.075 | 1.9 L/kg
